The structures appear in SMILES notation. Converted amounts (≈) assume the structure as drawn. Non-standard residues stand in square brackets, D forms with d. Residues, ends and D or L forms follow the SMILES beside them. ξ: configuration not given here. ξLac(3-iPr) = CC(C)CC(O)C(=O)O; NMeV = CN[CH](C(=O)O)C(C)C; NMeA = CN[CH](C)C(=O)O; βAla = NCCC(=O)O

The conditions of this data set: buffer; pH 7.4; 6.0 h; 150.0 µM.
The solubility (kinetic) is solubility judged after dilution from a stock solution rather than from solid. Take `CCOc1ccc(CCNC(=O)c2cc3sccc3n2Cc2ccccc2)cc1OCC`: the kinetic solubility is under 1 µg/mL.

For `CC1CCC(n2c3cnccc3c3cnc(Nc4ccc5c(n4)CCN(C(=O)CO)C5)nc32)CC1` (stereo unspecified), the solubility (kinetic) is under 1 µg/mL.

Compound `COC(=O)c1ccnc(-c2cc(C(=O)NCCc3ccccc3)ccn2)c1` had a kinetic solubility of 5.36 µg/mL (≈ 14.8 µM).

`COc1ccccc1C(=O)Nc1nc2nc(C)cc(=O)n2[nH]1`: the kinetic solubility was over 44 µg/mL.

As to `CS(=O)(=O)CCNCc1ccc(-c2ccc3ncnc(Nc4ccc(OCc5cccc(F)c5)c(Cl)c4)c3c2)o1`, the solubility (kinetic) was under 1 µg/mL.

In turn, `CN1CCN(c2ccc(Nc3c4ccccc4nc4ccccc34)cc2)CC1` returned a solubility (kinetic) of over 54 µg/mL.

`FC(F)(F)c1cccc(Nc2ccc(CNc3nc(-c4ccccc4C(F)(F)F)nc4ccccc34)cc2)c1` registered a kinetic solubility of under 1 µg/mL.

Take `CC1(C)C(=O)NC2=C1C(=O)C(=O)c1ccccc12`: the kinetic solubility is over 36 µg/mL.

The compound `O=C(O)CCC(=O)Nc1nc(-c2ccccc2)cs1` registered a solubility (kinetic) of over 41 µg/mL.

`O=C(Nc1ccc(S(=O)(=O)Nc2nccs2)cc1)c1cccc2ccccc12` yielded a solubility (kinetic) of 1.39 µg/mL (≈ 3.39 µM).

The compound `COc1ccc(-c2ccc3nc(-c4ccc(SC)cc4)oc3c2)c(OC)c1OC` came in with a kinetic solubility of under 1 µg/mL.

`FC(F)(F)c1cccc(N2CCN(C(=S)Nc3ccccn3)CC2)c1` returned a kinetic solubility of 13.4 µg/mL (≈ 36.5 µM).

`CC(C)c1ccc(S(=O)(=O)c2cnc(SCC(=O)Nc3ccc4c(c3)OCCO4)[nH]c2=O)cc1` gave a kinetic solubility of over 74 µg/mL.

As to `CCOc1ccc(CCNC(=O)c2cc3sccc3n2Cc2cccc(C)c2)cc1OCC`, the solubility (kinetic) was under 1 µg/mL.

The compound `COCCCNC(=O)c1cc2cc(S(=O)(=O)N(C)C)ccc2n1C` came in with a solubility (kinetic) of 42.6 µg/mL (≈ 120 µM).

Regarding `O=C(Nc1ccc(S(=O)(=O)Nc2ncc(-c3ccccc3)s2)cc1)c1ccc2ccccc2c1`, the kinetic solubility was under 1 µg/mL.

In turn, `CCOc1ccc(C2c3c(oc4ccc(C)cc4c3=O)C(=O)N2CCCN(C)C)cc1` (stereo unspecified) showed a solubility (kinetic) of over 62 µg/mL.

Consider `O=C(Nc1ccc([S+](=O)([O-])Nc2nccs2)cc1)c1ccn[nH]1`, for which the solubility (kinetic) was over 52 µg/mL.

Regarding `CN(C(=O)CNC(=O)c1ccccc1OCC(=O)Nc1ccc(I)cc1)c1ccccc1`, the kinetic solubility turned out to be 1.28 µg/mL (≈ 2.35 µM).

On to `Cc1ccc2c(c1)c(=O)c1ccccc1n2CCCC(=O)Nc1cc(Cl)ccc1C`, for which the kinetic solubility is under 1 µg/mL.

`O=C(Nc1cccc(S(=O)(=O)C(F)(F)F)c1)c1ccccc1NC(=O)c1ccccc1OCC(F)(F)F`: the solubility (kinetic) was under 1 µg/mL.

On to `COc1ccc(NC(=O)c2[nH]c(C)cc2C)cc1S(=O)(=O)Nc1ccc(Br)cc1`, for which the solubility (kinetic) is under 1 µg/mL.

For `Cc1cc(NS(=O)(=O)c2ccc(NC(=O)Cc3ccc(Cl)c(Cl)c3)cc2)n(C)n1`, the solubility (kinetic) was over 67 µg/mL.

Regarding `CN(C(=O)CNC(=O)c1cc(F)ccc1OCC(=O)Nc1ccc(I)cc1)c1ccc(F)cc1`, the solubility (kinetic) was under 1 µg/mL.

In turn, `NC(CO)(CO)CCc1ccc(Sc2cccc(OCc3ccccc3)c2)cc1Cl` had a kinetic solubility of under 1 µg/mL.

As to `CSc1ccc(/C=C/c2nc3ccccc3n2S(=O)(=O)c2ccc(Br)cc2)cc1`, the kinetic solubility came out at 2.73 µg/mL (≈ 5.63 µM).

`O=S(=O)(Nc1nccs1)c1ccc(NCc2cccc(Cl)c2O)cc1` yielded a solubility (kinetic) of 46.1 µg/mL (≈ 117 µM).

`O=C(Nc1nc2cc(C(F)(F)F)ccc2s1)c1ccc(-c2cccc([N+](=O)[O-])c2)o1`: the solubility (kinetic) is under 1 µg/mL.

With `Clc1ccc2ncc(-c3cccc(NC4CCNC4)n3)n2c1` (stereo unspecified), the solubility (kinetic) is over 46 µg/mL.

As for `O=C(Nc1nc2cc(C(F)(F)F)cc(NC3CC3)n2n1)c1cccnc1`, the solubility (kinetic) was under 1 µg/mL.

`Cc1nnc2c3ccccc3nc(N3CCN(c4ccccc4)CC3)n12` displayed a solubility (kinetic) of under 1 µg/mL.

As to `O=C(Nc1ccc(S(=O)(=O)Nc2nccs2)cc1)c1ccncc1`, the solubility (kinetic) turned out to be 19.5 µg/mL (≈ 54.1 µM).

`Cc1ccccc1C(=O)N1CCc2cc(-c3cccc(NC(=O)Cc4ccc5c(c4)OCO5)c3)ccc21` displayed a solubility (kinetic) of under 1 µg/mL.

Consider `O=C(O)c1ccnc2cc(-c3nc4ccccc4n3CCN3CCCCC3)sc12`, for which the solubility (kinetic) worked out at 6.93 µg/mL (≈ 17.1 µM).

In the case of `O=C(Cc1ccc(Cl)c(Cl)c1)Nc1ccc(S(=O)(=O)Nc2cncnc2)cc1`, the kinetic solubility was over 64 µg/mL.

Regarding `COc1ccc(NC2CCCN(C(=O)CCc3ccccc3F)C2)cc1` (stereo unspecified), the kinetic solubility stood at 41.3 µg/mL (≈ 116 µM).

For the compound `O=[S+]([O-])(Nc1ccc(N2CCNCC2)cc1)c1ccc(NCc2cccc(Cl)c2O)cc1`, the solubility (kinetic) was 52.4 µg/mL (≈ 111 µM).

With `COc1ccc(-c2noc([C@@H]3Cc4nc[nH]c4CN3C(=O)NC3CCCCC3)n2)cc1`, the kinetic solubility is 30.5 µg/mL (≈ 72.1 µM).

`COc1ccc(C(=O)N2CCC3(CC2)CN(c2cccc(-c4ccccc4)c2)C3)cc1` gave a kinetic solubility of under 1 µg/mL.

`CNC(=O)c1cc(Oc2ccc(NC(=O)Nc3cc(C(C)(C)C)nn3-c3ccc4ncccc4c3)c(F)c2)ccn1` displayed a kinetic solubility of 3.5 µg/mL (≈ 6.32 µM).

For the compound `CC1Cc2cc(S(=O)(=O)NCc3ccc(N(C)C)cc3)ccc2N1C(=O)C1CCC1` (stereo unspecified), the kinetic solubility was found to be 3.08 µg/mL (≈ 7.2 µM).

With `NC(=O)C1CCN(c2nc(-c3cccc(Br)c3)cs2)CC1`, the solubility (kinetic) is 20.5 µg/mL (≈ 55.9 µM).

The compound `Cc1ccccc1C(=O)N1CCc2cc(-c3nc(NC(=O)c4ccc5c(c4)OCO5)sc3C)ccc21` came in with a solubility (kinetic) of under 1 µg/mL.

The compound `COc1ncccc1-c1cc2c(ccn2C(C)C)c(C(=O)NCc2c(C)cc(C)[nH]c2=O)n1` yielded a solubility (kinetic) of 10.1 µg/mL (≈ 22.8 µM).

Consider `CCNC(=O)N1CCCN(c2ccc(C(=O)NCCc3ccc(Cl)cc3Cl)cc2NC(=O)c2cccc(Cl)c2)CC1`, for which the solubility (kinetic) was under 1 µg/mL.

In turn, `Cc1ccc(C(=O)N2CCc3cc(-c4nc(NC(=O)Cc5ccc6c(c5)OCO6)sc4C)ccc32)cc1` registered a kinetic solubility of under 1 µg/mL.

Regarding `CC1=C(C(=O)NC2CCCCC2)C(c2ccccc2Br)N=C(Nc2nc3ccccc3o2)N1` (stereo unspecified), the kinetic solubility was under 1 µg/mL.

The compound `CCOC(=O)C1CCN(C(=O)C2(NC(=O)Nc3ccccc3Cl)CCCC2)CC1` came in with a solubility (kinetic) of 41.8 µg/mL (≈ 99 µM).

In turn, `O=C(Nc1nc(-c2ccccc2)cs1)c1ccncc1NS(=O)(=O)c1ccc(C(F)(F)F)cc1` had a solubility (kinetic) of under 1 µg/mL.

In turn, `O=C(Nc1ccc(S(=O)(=O)Nc2nccs2)cc1)c1ccnc(-c2ccccc2)c1` yielded a kinetic solubility of 15.6 µg/mL (≈ 35.8 µM).

For the compound `CC(C)(C#N)c1ccc(N2C(=O)OCc3cnc4ccc(-c5cnc6ccccc6c5)cc4c32)cc1`, the solubility (kinetic) is under 1 µg/mL.

The compound `CCN1CCN(c2ncc3c(n2)CCN(Cc2cc(Br)cs2)C3)CC1` returned a kinetic solubility of 37.1 µg/mL (≈ 88 µM).

The compound `COc1ccc(-n2nc(C3CCCN(C(=O)c4ccc(C)cc4)C3)[nH]c2=O)cc1` (stereo unspecified) registered a kinetic solubility of 39.4 µg/mL (≈ 100 µM).

With `Cc1ccc(-c2cc(C(=O)O)c3ccccc3n2)cc1`, the kinetic solubility was over 39 µg/mL.

In turn, `CN(C)c1cccc(-c2nc(N3CCC(C(N)=O)CC3)ncc2F)c1` gave a solubility (kinetic) of 42.6 µg/mL (≈ 124 µM).

`C=Cc1ccc(Cn2c(C(=O)O)c(CNCc3ccccc3)c3ccc(OC)cc32)cc1` gave a solubility (kinetic) of 5.42 µg/mL (≈ 12.7 µM). This solubility kinetic lies about 7.9-fold lower than the previous one.

`CCN(CC)S(=O)(=O)c1ccc2oc(C(=O)Nc3ccc(Br)cc3F)c(C)c2c1`: the kinetic solubility is under 1 µg/mL.

For the compound `Cc1nn(Cc2ccccc2Cl)c(C)c1CN(C)CC(O)COc1ccc(Cl)cc1` (stereo unspecified), the solubility (kinetic) was determined as 55.6 µg/mL (≈ 124 µM).

The compound `c1ccc(Nc2cc3c(cn2)CN(Cc2ccsc2)CCN3)cc1` had a kinetic solubility of over 75 µg/mL.

In the case of `O=C1CCCCc2cc(O)c(O)cc21`, the kinetic solubility was over 28 µg/mL.

`CCOC(=O)N1CCc2c(sc(NCc3sccc3C)c2C(=O)Nc2cc(Cl)ccc2OC)C1` showed a solubility (kinetic) of under 1 µg/mL.

`c1ccc(-c2nnc3n2NC(c2ccc4c(c2)OCO4)S3)cc1` (stereo unspecified) showed a solubility (kinetic) of 1.56 µg/mL (≈ 4.82 µM).

In turn, `Fc1cc(F)cc(Nc2nc(-c3ccncc3)nc3ccccc23)c1` registered a kinetic solubility of 2.59 µg/mL (≈ 7.75 µM).

The compound `Cc1cnc(-c2ccccc2C(C)C)nc1NCc1ccc(-n2ccnn2)cc1` came in with a solubility (kinetic) of 6.61 µg/mL (≈ 17.2 µM).

In turn, `O=[S+]([O-])(Nc1ccc(N2CCNCC2)cc1)c1ccc(NCc2ccc(Br)cc2O)cc1` gave a solubility (kinetic) of 20.1 µg/mL (≈ 38.8 µM).

`O=C(c1nc(-c2ccc(Cl)cc2Cl)c2cnccn12)N1CCOCC1`: the kinetic solubility came to 20.2 µg/mL (≈ 53.6 µM).

On to `C[C@@]1(O)[C@H](O)[C@@H](CO)O[C@H]1n1ccc(N)nc1=O`, for which the solubility (kinetic) is over 38 µg/mL.

The compound `CC(C)c1c(-c2ccccc2)nc2c(C#N)c[nH]n2c1=O` gave a solubility (kinetic) of over 41 µg/mL.

Consider `CCOc1cc2ncc(C#N)c(Nc3ccc(OCc4ccccn4)c(Cl)c3)c2cc1NC(=O)/C=C/CN(C)C`, for which the solubility (kinetic) was under 1 µg/mL.

As to `COc1ccc(OC)c(C(=O)Nc2nc(-c3ccccc3)cs2)c1`, the solubility (kinetic) was under 1 µg/mL.

The compound `Cc1cnc(-c2ccccc2C(F)F)nc1NCc1ccc(-c2cccnc2)cc1` returned a kinetic solubility of 1.07 µg/mL (≈ 2.66 µM).

Take `O=[S+]([O-])(Nc1ccc(C2CCNCC2)cc1)c1ccc(NCc2ccc(Br)cc2O)cc1`: the kinetic solubility amounted to 12.8 µg/mL (≈ 24.8 µM).

The compound `CCC(C)C1NC(=O)C2CCCN2C(=O)C(CC(C)C)OC(=O)CCNC(=O)C(C)N(C)C(=O)C(C(C)C)N(C)C1=O` (stereo unspecified) (cyclo([ξLac(3-iPr)]PI[NMeV][NMeA][βAla]); configuration not given here) registered a solubility (kinetic) of 2.68 µg/mL (≈ 4.52 µM).

In the case of `COCCNc1ncc(-c2cccc(O)c2)c2c1OCC2`, the solubility (kinetic) was over 85 µg/mL.

`COc1ccccc1C(=O)NC1CCCc2c1[nH]c1c(Cl)cccc21` (stereo unspecified) returned a solubility (kinetic) of under 1 µg/mL.

Compound `Cc1ccc(S(=O)(=O)Nc2cnccc2C(=O)Nc2nc(-c3cnn(C)c3)cs2)cc1` showed a solubility (kinetic) of 25.4 µg/mL (≈ 55.8 µM).

In the case of `COc1ccc(S(=O)(=O)N(C(=O)C(C)C)c2ccc3oc(=O)sc3c2)cc1`, the kinetic solubility came to 8.8 µg/mL (≈ 21.6 µM).

Regarding `COc1ccc(Cn2c(=O)[nH]c3cc(C(=O)NCCCN4CCCCC4)ccc3c2=O)cc1`, the solubility (kinetic) is over 67 µg/mL.

Turning to `N#Cc1ccc(-c2ccc(CNc3ccc(C4CCNCC4)cc3)o2)cc1`, the kinetic solubility amounted to 35.2 µg/mL (≈ 98.6 µM).

Turning to `CCOC(=O)N1CCN(Cc2nc3c(c(=O)n(C)c(=O)n3C)n2Cc2ccc(F)cc2)CC1`, the solubility (kinetic) was over 68 µg/mL.

The compound `CC(C)(C)C(=O)C(Oc1ccc(Cl)cc1)n1ccnc1` (stereo unspecified) registered a solubility (kinetic) of 29 µg/mL (≈ 99.1 µM).

`O=C(NC1CC1)c1nc(-c2cccnc2)c2ccccn12` displayed a solubility (kinetic) of over 62 µg/mL.

In turn, `Nc1nc(Nc2ccc(S(N)(=O)=O)cc2)n(C(=S)Nc2c(F)cccc2F)n1` showed a kinetic solubility of under 1 µg/mL.

Compound `Cc1ccc(C(=O)Nc2nc3nc(C)cc(=O)n3[nH]2)cc1` had a kinetic solubility of over 42 µg/mL.

Regarding `Cc1cc(C)cc(NS(=O)(=O)c2ccc3[nH]cc(C(=O)NCc4ccco4)c(=O)c3c2)c1`, the kinetic solubility came to 2.87 µg/mL (≈ 6.35 µM).

With `N#Cc1ccc(S(=O)(=O)Nc2cnccc2C(=O)Nc2nc(-c3ccccc3)cs2)cc1`, the kinetic solubility came out at 6.96 µg/mL (≈ 15.1 µM). This solubility kinetic lies about 2.4-fold higher than the previous one.

Source of the values: PubChem BioAssay AID1645848.
